# Laboratory results as given in paper PMC10094450, “Investigation of the Entry Pathway and Molecular Nature of σ1 Receptor Ligands” (International Journal of Molecular Sciences, 2023).
# Read-outs that look alike come from different tables or passages of the source.
# Key:
# [1] = molecular target: T1, Hsσ1-R (Homo sapiens, UniProt Q99720); experiment: Fluorescence titration (intrinsic tryptophan fluorescence quenching) of purified Hsσ1-R
# From the text: Since the intrinsic fluorescence of tryptophan residues within a given protein depends on the tryptophan’s environment, when a molecule binds near tryptophan residues it can lead to fluorescence intensity quenching (Figure 6). Thanks to the fact that two of the tryptophan residues (i.e., Trp89 and Trp164) are part of the previously identified Hsσ1-R binding site (Supplementary Figure S11), we were able to perform fluorescence titration to measure the affinity of selected molecules for this receptor.
# Binding of ligands to Hsσ1-R was followed by measuring the intrinsic protein fluorescence on a Fluoromax-4 spectrofluorometer (Horiba-Jobin Yvon). Fluorescence spectra were collected at 25 °C using a 1 cm path length cuvette, under continuous stirring. The excitation wavelength was 280 nm, and emission was recorded between 300 and 450 nm. The protein was used at 100 nM concentration in a buffer containing 0.01% LMNG, 0.001% CHS, 100 mM NaCl and 20 mM HEPES pH 7.5. The ligands were added to the protein solution, starting from a 10 mM stock solution in 100% DMSO, at a final concentration within the range 0.01 to 100 μM. The measurements were performed after each addition, following 3 min of incubation.
# This equation describes a two-site model in which the binding sites are independent of each other, and at each site the interaction is non-cooperative [71]:(2) ΔF=ΔFmax1×Ltot/KD1+Ltot+ΔFmax2×Ltot/KD2+Ltot where: ΔF is the fluorescence quenching due to ligand binding; ΔFmax is the maximum fluorescence quenching possible in the experiment; [L]tot is the total concentration of the ligand; and KD1 and KD2 are the dissociation constants for the two sites.
# [2] = molecular target: T1, Hsσ1-R; design: FLAG; made in house; host or cells: Sf9 insect cells (baculovirus, pFastbac1); method as in PMID 33525510; conditions: purified σ1R immobilized on a matrix; read-out: KD by SPR; cited from earlier work
# [3] = read-out: KD2, low-affinity site, two-site model, 25 °C
# T1 sequence (Q99720 whole entry): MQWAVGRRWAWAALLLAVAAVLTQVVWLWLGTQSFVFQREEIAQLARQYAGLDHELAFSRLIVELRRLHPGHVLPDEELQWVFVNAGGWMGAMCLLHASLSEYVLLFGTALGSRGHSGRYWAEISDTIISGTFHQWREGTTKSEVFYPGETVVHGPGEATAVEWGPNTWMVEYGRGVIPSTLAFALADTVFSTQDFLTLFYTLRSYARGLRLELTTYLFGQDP
Structure (SMILES),"Kd ([1]; read-out: KD1, high-affinity site, two-site model, 25 °C)","Kd [1, 3]","KD for the high affinity site, fold better than that of pridopidine ([1]; versus pridopidine, same assay)",Kd [2],Kd [1]
"CC(=O)C1=CC[C@H]2[C@@H]3CCC4=CC(=O)CC[C@]4(C)[C@H]3CC[C@]12C [16,17-didehydroprogesterone]",0.01 ± 0.004 µM,15.8 ± 4.03 µM,25 fold,–,–
COc1cc(C(C)=O)ccc1OCCCN1CCC(c2noc3cc(F)ccc23)CC1 [Iloperidone],–,33.1 ± 14.4 µM,–,5 µM,0.019 ± 0.015 µM
